Assay results taken from patent EP0986381B1, “USE OF DITERPENES LIKE HYPOESTOXIDES FOR THE MANUFACTURE OF A MEDICAMENT FOR IMMUNOSUPPRESSION, ANTICANCER AND ANTIVIRAL TREATMENT” (Immune Modulation, Inc., priority 1997, dated 1998).

Columns and labels:
[1] = test system: IL-1β, TNF-α, and IL-6; assay: LPS-induced pro-inflammatory cytokine synthesis in PBMC, enzyme immunoassay; type: cell-based, human; conditions: 1 µg/mL JO-4, LPS-stimulated PBMC
Experimental: Human peripheral blood mononuclear cells (PBMC) were cultured with B-cell mitogen LPS (Gibco BRL, Grand Island, NY) 3 µg/mL) at 2 x 10^6/mL in 1.0 mL volumes in 24-well plates in the presence of either 1 µg/mL JO-4 or medium for 48 hr. In a 37°C incubator with 5% CO2. Culture supernatants were collected at the end of incubation period and were assayed by enzyme immunoassay for the presence of the cytokines: interleukin-1β,-6 and TNF-α. Results are expressed as inhibition of cytokine production.

[2] = test system: human PBMCs; assay: Toxicity on human PBMC, trypan blue dye exclusion; type: cell-based; conditions: 1.25, 2.5 and 5 µg/mL; 2, 5 and 7 days
Experimental: In order to determine if JO-4 was toxic on human cells in vitro, human PBMCs were cultured in the absence or presence of varying concentrations of JO-4 (1.25, 2.5, and 5 µg/mL) for different days (2, 5 and 7 days). At the end of each incubation period, viability of cells was determined by trypan blue dye exclusion method.

[3] = test system: HSV-1; assay: In vitro HSV-1 replication assay, Hybriwix Probe Systems; type: cell-based, Herpes simplex virus; conditions: Human alphaherpesvirus 1, 48 h, two days, African green monkey kidney cells
Experimental: The antiviral activity of the drug was determined using the Hybriwix™ Probe Systems (Herpes Antiviral Susceptibility Test kit: Diagnostic Hybrids, Inc., Athens, OH). Briefly, either HSV-1 or HSV-2 isolates (ATTC, Rockville, MD) were pre-adsorbed at 37°C and 5% CO2 in a humidified incubator for 60 minutes on African green monkey Kidney cells in a 24-well flat-bottom plate. Following pre-adsorption, the viral inoculum was removed and the growth medium containing various concentrations of appropriate drug was placed in appropriate wells. The culture was continued for 48 hours for the amplification of the virus. Quantification of the HSV DNA present in each well was determined by the nucleic acid hybridization method. The cells and/or virus were lysed with DNA wicking agent and the single-stranded DNA was immobilized on a Hybriwix™ filter by a vertical capillary absorption of the wicking agent/DNA solution. The amount of HSV target DNA from each well was determined using radioactive (I^125)-HSV DNA probe containing genetic sequences, which are homologous to HSV-1 or HSV-2 sequences. The amount of radioactivity present on the Hybriwix™ was dependent upon the amount of HSV DNA present after culture, and was determined in a gamma counter (Packard Instrument Co., Meriden, CT).

[4] = test system: human cervical epitheloid carcinoma (HeLa) cells; assay: Colorimetric MTT cytotoxicity assay, HeLa; type: cell-based; conditions: 72 hours, read-out: IC50 (drug concentration capable of inducing 50% cytotoxicity)
Experimental: (§1) The following materials and methods were employed in the non-limiting Examples set out below. Tumor cells: Human cervical epitheloid carcinoma (HeLa), human renal clear cell carcinoma (CAKI-1), human malignant melanoma (RPMI-7951) and mouse malignant melanoma (B16-F1) were procured from ATCC (Rockville, MD) and maintained in vitro with MEM medium (Mediatech, Inc., Herndon, VA) supplemented with 10% heat-inactivated fetal bovine serum (American Qualex, San Clemente, CA), 10mM glutamine, 100 U/ml penicillin, and 100 µg/ml streptomycin (Sigma Chemicals, Saint Louis, MO) (complete medium). […] Cell viability was assessed by trypan blue dye exclusion test and the cell number was adjusted to required concentration. Colorimetric MTT assay: Cytotoxic effects of the hypoestoxide compounds of formulas I and II (JO-4A) were determined in vitro by a colorimetric assay (Mosmann, T., J. Immunol. Methods, 65: 55-63, 1983). […] Mixing with a multichannel pipetter dissolved the dark blue crystals and the absorbance was measured at 545-650 nm using an ELISA plate reader. […] The tumors were measured with a microcaliper, and the tumor volume was calculated by the formula: Length x width x height x 0.5236 (Jungwirth, A. et al., Proc. Natl. Acad. Sci. USA, 94:5810-5813, 1997). […]

[5] = test system: renal carcinoma (CAKI-1) cells; assay: Colorimetric MTT cytotoxicity assay, CAKI-1; type: cell-based; conditions: Homo sapiens; CAKI-1, 72 hours
Experimental: as §1

[6] = Colorimetric MTT cytotoxicity assay, HUVEC; type: cell-based; conditions: human, read-out: IC50 concentration (cytotoxicity)
Experimental: as §1

[7] = test system: mouse malignant melanoma cells (B16-F1); assay: Colorimetric MTT cytotoxicity assay, B16-F1; type: cell-based; conditions: B16-F1, 72 hours, read-out: IC50 concentration (cytotoxicity)
Experimental: as §1

Row | Compound | effect on pro-inflammatory cytokine synthesis [1] | toxicity to lymphocytes [2] | inhibition at 3.125 µM ([3]; 3.125 µM) | inhibition at 12.5 µM ([3]; 12.5 µM) | IC50 ([3]; read-out: IC50 dose on HSV-1 inhibition) | IC50 [4] | IC50 [5] | CC50 at 72 h [6] | IC50 [7]
1 | C=C1C(=O)C[C@H]2C[C@@H]3O[C@@]3(C)CC[C@@H]3O[C@@]3(C)C[C@@H](OC(C)=O)[C@H]1C2(C)C [JO-4, hypoestoxide] | inhibitory or immunosuppressant effect | not toxic | 53% | 60% | ~3.12 µM | – | – | – | –
2 | C=C1C(=O)CC2CC3OC3(C)CCC3OC3(C)CC(O)C1C2(C)C (stereo not drawn) [JO-4A] | – | – | – | – | – | 10 to 12.5 µM | 20 to 40 µM | 25 to 50 µM | 6.25 to 12.5 µM
